Results: patent publication US20040224981A1, “Antibacterial methods and compositions” (priority 2003, published 2004)
≈ marks a conversion by molar mass, not a printed value. Read-outs that look alike come from different tables or passages of the source.

Tests used:
E. faecium = assay: MIC against E. faecium; assay type: cell-based
Method: MRSi compound 5 alone and in combination with mupirocin was tested recent clinical isolates of E. faecalis (n=28) and E. faecium (n=23). Both the acetate salt and mupirocinate salts of MRSi compound 5 maintained potent activity against vancomycin-susceptible and—resistant enterococci (Tables 8, 9, and 10).

[1] = tested on: S. aureus ATCC 29213 and 31-1334; assay: Selection of spontaneous resistant mutants (mutation frequency); assay type: cell-based, Staphylococcus aureus
Method: Approximately, 10^9 bacteria were plated onto Mueller-Hinton agar supplemented with 10% horse blood and containing various concentrations of the test compounds alone and in combination. After 24 and 48 hours of incubation at 35° C., the bacterial colonies were counted and the frequencies of mutation were determined relative to the total viable count of organisms that were plated. Resistant clones were re-plated once on plates containing the same concentration of agent that was used for the selection.

[2] = tested on: S. aureus RN4220 (pYH4-MRS); assay: Mode of action: MIC with MRS over-production; assay type: cell-based; conditions: S. aureus RN4220 (pYH4-MRS), +aTC (MRS over-expression)
Method: The strain expresses high levels of MRS upon the addition of 0.01 μg/mL of anyhdrotetracycline.

[3] = tested on: mupirocin-resistant S. aureus; conditions: cited from earlier work
S. aureus = assay: Development of resistance following serial passage, S. aureus; assay type: cell-based; conditions: Staphylococcus aureus
Method: (§1) MRSi compound 5 (acetate salt), mupirocin and MRSi compound 5/mupirocin 1:1 combination were tested for development of resistance following serial passage using 19 isolates, including S. aureus, coagulase-negative staphylococci and S. pyogenes strains.

S. epidermidis = assay: Development of resistance following serial passage, S. epidermidis; assay type: cell-based; conditions: Staphylococcus epidermidis
Method: as §1

S. hemolyticus = assay: Development of resistance following serial passage, S. hemolyticus; assay type: cell-based
Method: as §1

S. pyogenes = assay: Development of resistance following serial passage, S. pyogenes; assay type: cell-based; conditions: Streptococcus pyogenes
Method: as §1

[4] = recent clinical isolates of E. faecium, ALL (23)

Question: With `C/C(=C\C(=O)OCCCCCCCCC(=O)O)C[C@@H]1OC[C@H](C[C@@H]2O[C@H]2[C@@H](C)[C@H](C)O)[C@@H](O)[C@H]1O` [Mupirocin, Pseudomonic acid A] as the molecule, how does the MIC50 (E. faecium; E. faecium, Van-R(12)) read?
Answer: 1 µg/mL

Question: And the MIC90 (E. faecium; E. faecium, Van-R(12))?
Answer: > 8 µg/mL

Question: What about the Mode (MIC) (E. faecium; E. faecium, Van-R(12)) of the same molecule?
Answer: 1 µg/mL

Question: And the MIC50 (E. faecium; E. faecium, Van-S (11))?
Answer: 1 µg/mL

Question: What about the MIC90 (E. faecium; E. faecium, Van-S (11)) of the same molecule?
Answer: 1 µg/mL

Question: What about the Mode (MIC) (E. faecium; E. faecium, Van-S (11)) of the same molecule?
Answer: 1 µg/mL

Question: And the “Range (MIC)” value (E. faecium; E. faecium, Van-S (11), in µg/mL)?
Answer: 0.25-1

Question: What about the MIC (E. faecium; Enterococcus faecium, ATCC33667, Table 8, E. faecium ATCC 33667, read-out: MIC) of the same molecule?
Answer: 1 µg/mL

Question: What about the MIC50 (E. faecium; [4]) of the same molecule?
Answer: 1 µg/mL

Question: And the MIC90 (E. faecium; [4])?
Answer: > 8 µg/mL

Question: What about the Mode (MIC) (E. faecium; [4]) of the same molecule?
Answer: 1 µg/mL

Question: And the “Mutation Frequency (48 hours)” value ([1]; S. aureus 31-1334 (low level mupirocin-resistant), selecting concentration 2 x MIC)?
Answer: 1.8 × 10^−8

Question: And the “Mutation Frequency (48 hours)” value ([1]; S. aureus 31-1334 (low level mupirocin-resistant), selecting concentration 4 x MIC)?
Answer: 2 × 10^−9

Question: What about the “Mutation Frequency (48 hours)” value ([1]; S. aureus 31-1334 (low level mupirocin-resistant), selecting concentration 8 x MIC) of the same molecule?
Answer: <1 × 10^−9

Question: What about the “Mutation Frequency (48 hours)” value ([1]; S. aureus ATCC 29213 (mupirocin susceptible), selecting concentration 2 x MIC) of the same molecule?
Answer: 1.25 × 10^−7

Question: What about the “Mutation Frequency (48 hours)” value ([1]; S. aureus ATCC 29213 (mupirocin susceptible), selecting concentration 4 x MIC) of the same molecule?
Answer: 1.01 × 10^−7

Question: What about the “Mutation Frequency (48 hours)” value ([1]; S. aureus ATCC 29213 (mupirocin susceptible), selecting concentration 8 x MIC) of the same molecule?
Answer: 2.57 × 10^−8

Question: And the MIC [2]?
Answer: 0.06 µg/mL (≈ 0.12 µM)

Question: What about the “MICs, high level resistance (mupA)” value ([3]; high level mupirocin resistance, plasmid-encoded IRS enzyme) of the same molecule?
Answer: > 512 µg/mL

Question: What about the “MIC's, low level resistance” value ([3]; low level mupirocin resistance (mutations in chromosomal isoleucyl tRNA synthetase)) of the same molecule?
Answer: 8 to 256 µg/mL

Question: With `C=C(F)c1sc(CNCCCNc2cc(=O)c3ccccc3[nH]2)c(C)c1Br` [MRSi Cmpd 5 acetate, N-(4-bromo-5-(1-fluorovinyl)-3-methylthiophen-2-ylmethyl)-N′-(1H-quinolin-4-one)propane-1,3-diamine] as the molecule, how does the MIC50 (E. faecium; E. faecium, Van-R(12)) read?
Answer: < 0.004 µg/mL

Question: And the MIC90 (E. faecium; E. faecium, Van-R(12))?
Answer: < 0.004 µg/mL

Question: What about the Mode (MIC) (E. faecium; E. faecium, Van-R(12)) of the same molecule?
Answer: < 0.004 µg/mL

Question: What about the “Range (MIC)” value (E. faecium; E. faecium, Van-R(12), in µg/mL) of the same molecule?
Answer: <0.004-0.03

Question: And the MIC50 (E. faecium; E. faecium, Van-S (11))?
Answer: ≦0.004

Question: And the MIC90 (E. faecium; E. faecium, Van-S (11))?
Answer: ≦0.004

Question: What about the “Mode (MIC)” value (E. faecium; E. faecium, Van-S (11)) of the same molecule?
Answer: ≦0.004

Question: What about the “Range (MIC)” value (E. faecium; E. faecium, Van-S (11)) of the same molecule?
Answer: ≦0.004

Question: And the MIC50 (E. faecium; [4])?
Answer: < 0.004 µg/mL

Question: And the MIC90 (E. faecium; [4])?
Answer: < 0.004 µg/mL

Question: What about the Mode (MIC) (E. faecium; [4]) of the same molecule?
Answer: < 0.004 µg/mL

Question: And the “Range (MIC)” value (E. faecium; recent clinical isolates of E. faecium, ALL (23), in µg/mL)?
Answer: <0.004-0.03

Question: What about the MIC (S. aureus; ATCC29213, read-out: Final MIC after 20 passages, S. aureus ATCC 29213) of the same molecule?
Answer: 4 µg/mL

Question: What about the MIC (S. aureus; ATCC29213, read-out: Initial MIC, S. aureus ATCC 29213) of the same molecule?
Answer: 0.06 µg/mL

Question: And the MIC (S. aureus; ATCC43300, read-out: Final MIC after 20 passages, S. aureus ATCC 43300 (ORSA))?
Answer: 1 µg/mL

Question: And the MIC (S. aureus; ATCC43300, read-out: Initial MIC, S. aureus ATCC 43300 (ORSA))?
Answer: 0.06 µg/mL

Question: And the MIC (S. aureus; NRS103, read-out: Final MIC after 20 passages, S. aureus NRS103 (ORSA))?
Answer: 1 µg/mL

Question: And the MIC (S. aureus; NRS103, read-out: Initial MIC, S. aureus NRS103 (ORSA))?
Answer: 0.12 µg/mL

Question: What about the MIC (S. aureus; NRS107, read-out: Final MIC after 20 passages, S. aureus NRS107 (HL-MupR)) of the same molecule?
Answer: 0.5 µg/mL

Question: And the MIC (S. aureus; NRS107, read-out: Initial MIC, S. aureus NRS107 (HL-MupR))?
Answer: 0.015 µg/mL

Question: And the MIC (S. aureus; read-out: Final MIC after 20 passages, S. aureus 10-420 (HL-MupR))?
Answer: 8 µg/mL

Question: And the MIC (S. aureus; read-out: Final MIC after 20 passages, S. aureus 25-670 (HL-MupR))?
Answer: 8 µg/mL

Question: And the MIC (S. aureus; read-out: Final MIC after 20 passages, S. aureus 31-1334 (LL-MupR))?
Answer: 8 µg/mL

Question: What about the MIC (S. aureus; read-out: Final MIC after 20 passages, S. aureus 87-2797 (HL-MupR)) of the same molecule?
Answer: 16 µg/mL

Question: What about the MIC (S. aureus; read-out: Final MIC after 20 passages, S. aureus 1079077 (ORSA)) of the same molecule?
Answer: 16 µg/mL

Question: And the MIC (S. aureus; read-out: Final MIC after 20 passages, S. aureus 1079101 (HL-MupR))?
Answer: 16 µg/mL

Question: And the MIC (S. aureus; read-out: Final MIC after 20 passages, S. aureus LZ6 (HL-MupR))?
Answer: 2 µg/mL

Question: What about the MIC (S. aureus; read-out: Initial MIC, S. aureus 1079077 (ORSA)) of the same molecule?
Answer: 0.25 µg/mL

Question: What about the MIC (S. epidermidis; NRS8, read-out: Initial MIC, S. epidermidis NRS8 (LL-MupR)) of the same molecule?
Answer: 0.06 µg/mL

Question: And the MIC (S. epidermidis; read-out: Final MIC after 20 passages, S. epidermidis 936528 (HL-MupR))?
Answer: 0.5 µg/mL

Question: And the MIC (S. epidermidis; read-out: Final MIC after 20 passages, S. epidermidis 936606 (Oxa-R))?
Answer: 16 µg/mL

Question: What about the MIC (S. epidermidis; read-out: Initial MIC, S. epidermidis 936528 (HL-MupR)) of the same molecule?
Answer: 0.03 µg/mL

Question: And the MIC (S. epidermidis; read-out: Initial MIC, S. epidermidis 936606 (Oxa-R))?
Answer: 0.06 µg/mL

Question: What about the MIC (S. hemolyticus; NRS116, read-out: Final MIC after 20 passages) of the same molecule?
Answer: 16 µg/mL

Question: And the MIC (S. hemolyticus; NRS116, read-out: Initial MIC)?
Answer: 0.12 µg/mL

Question: And the MIC (S. pyogenes; ATCC19615, read-out: Final MIC after 20 passages)?
Answer: 1 µg/mL

Question: And the MIC (S. pyogenes; read-out: Final MIC after 20 passages)?
Answer: 1 µg/mL
